Patent US7235536B2, “Cellulose sulfate and other sulfated polysaccharides to prevent and treat papilloma virus infection and other infections” (Rush Presbyterian-St. Luke's Medical Center, priority 2000, dated 2007)
Marks after values point to notes of the source that are not given here.

How the values were obtained:
[1] = tested on: Peptostreptococcus magnus
Bacteroides fragilis = assay: Broth method MIC; assay type: cell-based
Porphyromonas levii [2] = assay: Agar method MIC; assay type: cell-based; settings: for CS MIC: Agar
Gardnerella vaginalis = assay: Agar well growth inhibition on HBT bilayer agar plates; assay type: cell-based
Protocol: A fresh subculture of G. Vaginalis which is bacteria frequently associated with vaginitis was obtained after overnight growth (16 hours) on a V-agar plate and suspended in sterile phosphate buffered saline (PBS; pH 7.2) to achieve a turbidity of 0.5 (McFarland standard; approximately 10^8 CFU/ml). The suspension was diluted 10 fold and applied to HBT bilayer agar plates by swabbing the entire plate. The plate was allowed to dry for 2-3 min and small wells punched in the agar, 10 mm in diameter. Samples of cellulose sulfate were dissolved at 10 mg/ml in PBS and 0.2 ml placed in the agar wells. As control, 0.2 ml PBS was placed in one of the wells. Growth inhibition was indicated by a light area around the well.
The studies were repeated using various concentrations of cellulose sulfate (ranging from 10 mg/ml to 0.125 mg/ml) and 4 different Gardnerella vaginalis strains. […] The lowest initial concentration of cellulose sulfate at which growth inhibition occurred was 0.5 mg/ml.

BPV-1 = BPV-1 focus-forming assay, virus preincubated with compound (Table C); assay type: cell-based, bovine papilloma virus; settings: C127 cell line
Protocol: In a similar study using the BPV-1 focus forming assay, the effect of the cellulose sulfate and dextran sulfate on BPV was tested. In this study, cellulose sulfate tested was as described above. Dextran sulfate used was from Dextran Products Limited (Lot DSM-122) prepared using dextan of average Mr of about 500,000 (based on viscosity) and is estimated to have a final average Mr greater than about 500,000 and may be about 1 to 1.1 million.
Microbicidal activity of the compounds was tested using the well-characterized BPV-1 focus-forming assay (Dvoretzky, I., R. Shober, S. K. Chattopadhyay, and D. R. Lowy. 1980. A quantitative in vitro focus assay for bovine papilloma virus. Virology 103:369-375), with modifications for microbicide testing (Hermonat, P. L., (1992) supra; Howett, M. K., et al. (1999) supra. The terms inhibiting or microbicidal activity when used are intended to refer broadly to microbe infection and/or microbe inactivating effect.
Aliquots of BPV-1 containing approximately 100-200 focus-forming units were preincubated with dilutions of compounds for 10 min at 37° C. prior to addition to cultures of mouse C127 cells. Cultures of C127 cells were set up in T25 tissue culture flasks (Corning, N.Y.), containing 3×10^5 cells per flask. Virus-compound mixtures in a total of 50 μl were then added to flasks in 1 ml of media, and an additional 3 ml of media added after 24 hrs culture. Media was changed every 3-4 days for a period of 2 weeks. Foci were enumerated following staining of the monolayer with crystal violet and counting stained foci microscopically. Each concentration of compound was tested in duplicate, and the mean±SD of foci number for the preincubation virus-drug concentration for each compound is shown below as Table C.
Clones were derived from the parental C127 cell line because of the consistent failure of BPV-1 to induce foci following several cell passages of the uncloned parental cell line. One clone, labeled C127-D10, which produced foci upon BPV-1 infection, was chosen for a repeat testing of the compounds. When this clone was tested for microbicidal activity, less compound was required to achieve high reduction in BPV-1-induced foci when compared to the uncloned parental-C127 cells.

[3] = tested on: Bacteroides thetaiotaomicron; assay: Broth method MIC; assay type: cell-based
Porphyromonas levii [4] = assay: Broth method MIC; assay type: cell-based
Aspergillus niger = assay: Microbial challenge of CS gel; assay type: cell-based
Protocol: 6% CS was prepared in water as a translucent gel. Twenty grams of the gel was placed in a plastic screw-cap centrifuge tube. The microbial inoculants were prepared, gently vortexed and 0.1 ml inoculant was aseptically pipetted into the 20.0 gram gel. This procedure was repeated for each microbial organism. The samples were incubated at room temperature (20-25° C.) for 14 days or 28 days. The microbes tested and their theoretical yields can be found in Table F. After 14 or 28 days incubation, dilutions (10^−1, 10^−2, 10^−3) of the gels were made in saline and 1 ml plated onto Sabouraud dextrose (Aspergillus and Candida) or onto tryptic soy (other microbes). The number of organisms that grew after 3-7 days at room temperature were counted.
In another study, CS was dissolved in water at the concentrations indicated below. No other ingredients, including preservatives, were added. The gels were challenged with microbes as described above except that the gels were examined for the presence of microbes after 1, 2, 3, 4 and 7 days. The amount of microbes origially inoculated in the gels is also shown below.

Clostridium perfringes = assay: Broth method MIC; assay type: cell-based; settings: for CS MIC: Broth (study 2)
[5] = ATCC (first listed), Broth (study 1)
[6] = ATCC (first listed), Broth (study 2)
[7] = ATCC (second listed), Broth (study 2)

## sodium cellulose sulfate
[1]
  CS MIC: >0.625** mg/ml
Bacteroides fragilis; [5]
  CS MIC: NI (not inhibited by 10 mg/ml (the highest concentration tested))
Bacteroides fragilis; [6]
  CS MIC: 10000 µg/mL
Bacteroides fragilis; [7]
  CS MIC: NI (not inhibited by 10 mg/ml (the highest concentration tested))
Bacteroides fragilis; at the concentrations tested
  growth inhibition: one strain of Bacteroides fragilis was inhibited but three others were not
Bacteroides fragilis; rma# 11647, Broth (study 2)
  CS MIC: NI (not inhibited by 10 mg/ml (the highest concentration tested))
Bacteroides fragilis; rma# 11652, Broth (study 2)
  CS MIC: NI (not inhibited by 10 mg/ml (the highest concentration tested))
Porphyromonas levii [2]; Example 8, agar, 48 hours anaerobic, highest tested 625 μg/ml
  lowest concentration of compound that inhibited growth: 40 µg/mL
Porphyromonas levii [2]; rma# 11425
  CS MIC: >625 µg/mL
Porphyromonas levii [2]; rma# 11601
  CS MIC: 40 µg/mL
Gardnerella vaginalis; 10 mg/ml in PBS, 0.2 ml in agar well
  area of growth inhibition around the well, diameter: 6 mm
Gardnerella vaginalis; 4 different Gardnerella vaginalis strains, 10 mg/ml to 0.125 mg/ml
  growth inhibition: Dose dependent inhibition
Gardnerella vaginalis; 4 different Gardnerella vaginalis strains, 10 mg/ml to 0.125 mg/ml tested
  lowest initial concentration at which growth inhibition occurred: 0.5 mg/mL
BPV-1; 1 mg/ml
  inhibition of papilloma virus infectivity: complete inhibition
BPV-1; 10 to 100 μg/ml
  inhibition of papilloma virus infectivity: moderate to high inhibition
[3]; [5]
  CS MIC: NI (not inhibited by 10 mg/ml (the highest concentration tested))
[3]; [6]
  CS MIC: NI (not inhibited by 10 mg/ml (the highest concentration tested))
[3]; [7]
  CS MIC: 10000 µg/mL
[3]; at the concentrations tested
  growth inhibition: One strain of Bacteroides thetaiotaomicron was inhibited but three others were not
[3]; rma# 11604, Broth (study 2)
  CS MIC: NI (not inhibited by 10 mg/ml (the highest concentration tested))
[3]; rma# 11651, Broth (study 2)
  CS MIC: NI (not inhibited by 10 mg/ml (the highest concentration tested))
Porphyromonas levii [4]; both strains
  growth inhibition: inhibited
Porphyromonas levii [4]; rma# 11425, Broth (study 1)
  CS MIC: 600 µg/mL
Porphyromonas levii [4]; rma# 11425, Broth (study 2)
  CS MIC: 600 µg/mL
Porphyromonas levii [4]; rma# 11601, Broth (study 1)
  CS MIC: 300 µg/mL
Porphyromonas levii [4]; rma# 11601, Broth (study 2)
  CS MIC: 300 µg/mL
Aspergillus niger; 6% CS gel, ATCC 16404, room temperature, Day 14
  Day 14 CFU/g: 0 CFU/g
Aspergillus niger; 6% CS gel, ATCC 16404, room temperature, Day 28
  Day 28 CFU/g: 0 CFU/g
Aspergillus niger; CS 0.06% in water, 24 hours
  Asperigillus niger CFU: 0 CFU × 10^5/ml
Aspergillus niger; CS 0.06% in water, 48 hours
  Asperigillus niger CFU: 0 CFU × 10^5/ml
Aspergillus niger; CS 0.06% in water, 72 hours
  Asperigillus niger CFU: 0 CFU × 10^5/ml
Aspergillus niger; CS 0.06% in water, 96 hours
  Asperigillus niger CFU: 0 CFU × 10^5/ml
Aspergillus niger; CS 0.06% in water, 7 days
  Asperigillus niger CFU: 0 CFU × 10^5/ml
Aspergillus niger; CS 0.6% in water, 24 hours
  Asperigillus niger CFU: 0 CFU × 10^5/ml
Aspergillus niger; CS 0.6% in water, 48 hours
  Asperigillus niger CFU: 0 CFU × 10^5/ml
Aspergillus niger; CS 0.6% in water, 72 hours
  Asperigillus niger CFU: 0 CFU × 10^5/ml
Aspergillus niger; CS 0.6% in water, 96 hours
  Asperigillus niger CFU: 0 CFU × 10^5/ml
Aspergillus niger; CS 0.6% in water, 7 days
  Asperigillus niger CFU: 0 CFU × 10^5/ml
Aspergillus niger; CS 1.2% in water, 24 hours
  Asperigillus niger CFU: 0 CFU × 10^5/ml
Aspergillus niger; CS 1.2% in water, 48 hours
  Asperigillus niger CFU: 0 CFU × 10^5/ml
Aspergillus niger; CS 1.2% in water, 72 hours
  Asperigillus niger CFU: 0 CFU × 10^5/ml
Aspergillus niger; CS 1.2% in water, 96 hours
  Asperigillus niger CFU: 0 CFU × 10^5/ml
Aspergillus niger; CS 1.2% in water, 7 days
  Asperigillus niger CFU: 0 CFU × 10^5/ml
Aspergillus niger; CS 6% in water, 24 hours
  Asperigillus niger CFU: 0 CFU × 10^5/ml
Aspergillus niger; CS 6% in water, 48 hours
  Asperigillus niger CFU: 0 CFU × 10^5/ml
Aspergillus niger; CS 6% in water, 72 hours
  Asperigillus niger CFU: 0 CFU × 10^5/ml
Aspergillus niger; CS 6% in water, 96 hours
  Asperigillus niger CFU: 0 CFU × 10^5/ml
Aspergillus niger; CS 6% in water, 7 days
  Asperigillus niger CFU: 0 CFU × 10^5/ml
Aspergillus niger; CS gel in as low a concentration as 0.6%
  inactivation of Asperigillus: completely inactivated
Clostridium perfringes; at the concentrations tested
  growth inhibition: inhibited one strain of Clostridium perfringes but not another one
Clostridium perfringes; rma# 11608
  CS MIC: 10000 µg/mL
Clostridium perfringes; rma# 11655
  CS MIC: NI (not inhibited by 10 mg/ml (the highest concentration tested))
